Results from patent publication US11141403B2, “Benzimidazoles and indoles as taro inhibitors” (MERCK SHARP & DOHME CORP., priority 2015, dated 2021).
Read-outs that look alike come from different tables or passages of the source.

Tested on: MRSA COL (MB5393)
Experiment: TarO Inhibitor/β-Lactam Synergy Assay
Type: cell-based, Staphylococcus aureus
Conditions: 20 hours; for IC95: TarO inhibitor alone, OD600, 95% growth inhibition, read-out: MITC95 TarO inhibitor alone, Bacteria: SA_MB5393; for MITC95 TarO inhibitor + 4 μg/mL IPM; Bacteria: SA_MB5393: in combination with 4 μg/mL imipenem; for MITC95 TarO inhibitor + 4 μg/mL IPM; Bacteria: SA_MB5393 / MITC95 TarO inhibitor + 8 μg/mL DCX; Bacteria: SA_MB5393: OD600; for MITC95 TarO inhibitor + 8 μg/mL DCX; Bacteria: SA_MB5393: in combination with 8 μg/mL dicloxacillin
Procedure: The TarO inhibitor/β-lactam synergy assay was performed to measure the re-sensitization of methicillin-resistant Staphylococci bacteria (MB5393: MRSA COL) to β-lactam antibiotics by TarO inhibitors. MRSA COL is a hospital-acquired penicillinase-negative clinically isolated strain commonly used in Staphylococcus aureus studies and is fully resistant to the antimicrobial bioactivity of β-lactam antibiotics, including but not limited to imipenem and dicloxacillin. […] MRSA COL is fully refractory to β-lactam antibiotic effect at the current clinical breakpoint concentrations and as such MRSA COL is fully viable at these concentrations.
The β-lactam antibiotic concentration was fixed at the clinical breakpoint (imipenem 4 μg/ml or dicloxacillin 8 μg/ml) and the TarO inhibitors were titrated by 2 fold starting from the highest concentration of 200 μM with final DMSO concentration of 2% in the assay. 5×10^5 colony forming unit of MRSA COL in cation-adjusted Mueller Hinton broth (CAMHB) was then mixed and the assay plate was incubated for 20 hours at 37° C. without shaking. After 20 hours, the optical density at 600 nm (OD600) was read for all wells to determine relative growth of MRSA COL.

SMILES	IC95 (Staphylococcus aureus) [µM]	MITC95 TarO inhibitor + 4 μg/mL IPM; Bacteria: SA_MB5393 [µM]	MITC95 TarO inhibitor + 8 μg/mL DCX; Bacteria: SA_MB5393 [µM]	IC95 [µM]
CCN(C(=O)CCn1c(C2CCCN(c3cccc(OC)n3)C2)nc2ccccc21)C1CCCCC1 (stereo not drawn) [Example 47, N-cyclohexyl-N-ethyl-3-{2-[1-(6-methoxypyridin-2-yl)piperidin-3-yl]-1H-benzimidazol-1-yl}propanamide]	100	0.10	0.20	–
CCN(C(=O)CCn1c2cccc(N3CCOCC3)c2nc1[C@H]1CC[C@H](CC)CC1)C1CCCCC1 [Example 32, N-cyclohexyl-N-ethyl-3-[2-(trans-4-ethylcyclohexyl)-4-morpholin-4-yl-1H-benzimidazol-1-yl]propanamide]	> 200	20.83	20.83	–
CCN(C(=O)CCn1c(N2CCC(F)(F)CC2)nc2ccccc21)C1CCCCC1 [Example 55, N-cyclohexyl-3-(2-(4,4-difluoropiperidin-1-yl)-1H-benzo[d]imidazol-1-yl)-N-ethylpropanamide]	> 200	1.37	7.81	–
CCN(C(=O)CCn1c2ccc(Br)cc2nc1[C@H]1CC[C@H](CC)CC1)C1CCCCC1 [Example 5, 3-[5-bromo-2-(trans-4-ethylcyclohexyl)-1H-benzimidazol-1-yl]-N-cvclohexyl-N-ethylpropanamide]	> 200	0.01	0.02	–
CCN(C(=O)CCn1c2ccc(F)cc2nc1[C@H]1CC[C@H](CC)CC1)C1CCCCC1 [Example 10, N-cyclohexyl-N-ethyl-3-[2-(trans-4-ethylcyclohexyl)-5-fluoro-1H-benzimidazol-1-yl]propanamide]	> 200	0.004	0.03	–
CCN(C(=O)CCn1c2ccc(CO)cc2nc1[C@H]1CC[C@H](CC)CC1)C1CCCCC1 [Example 1, N-cyclohexyl-N-ethyl-3-(2-(trans-4-ethylcyclohexyl)-5-(hydroxymethyl)-1H-benzo[d]imidazol-1-yl)propanamide]	> 200	1.82	6.25	–
CCOC(=O)N1CCCC(c2nc3ccc(F)cc3n2CCC(=O)N(CC)C2CCCCC2)C1 (stereo not drawn) [Example 23, Ethyl 3-(1-{3-[cyclohexyl(ethyl)amino]-3-oxopropyl}-6-fluoro-1H-benzimidazol-2-yl)piperidine-1-carboxylate]	> 200	9.38	37.50	–
CCOC(=O)N1CCCC(c2nc3cc(F)ccc3n2CCC(=O)N(CC)C2CCCCC2)C1 (stereo not drawn) [Example 18, Ethyl 3-(1-{3-[cyclohexyl(ethyl)amino]-3-oxopropyl}-5-fluoro-1H-benzimidazol-2-yl)piperidine-1-carboxylate]	–	1.09	23.75	>200
CCN(C(=O)CCn1c(N2CCC(C(F)F)CC2)nc2ccccc21)C1CCCCC1 [Example 56, N-cyclohexyl-3-{2-[4-(difluoromethyl)piperidin-1-yl]-1H-benzimidazol-1-yl}-N-ethylpropanamide]	> 200	1.17	4.69	–
